# Test results as given in patent US20260365670A1, “EGFR INHIBITORS AND USES THEREOF” (DIZAL (JIANGSU) PHARMACEUTICAL CO., LTD., priority 2022, published 2026).
# Where two headings read alike, the source gives them in different places.
# How the values were obtained:
# [1] = test system: Ba/F3 cells expressing EGFR mutations; assay: Cell proliferation assay, Ba/F3 cells expressing EGFR mutations (CellTiter-Glo, 72 hours); type: cell-based; conditions: Mus musculus, BaF3, 72 h, CellTiter-Glo
# Summary of the method: (§1)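 Cells are exposed to graded compound concentrations after overnight plating, using 500 PC-9 or 5000 Ba/F3 per well. Baseline-subtracted viability is compared with vehicle to give percent proliferation, then GI50.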
# EGFR Exon19Del = molecular target: T1, EGFR Exon19Del (Homo sapiens, UniProt P00533, DEL746-750); assay: Inhibition of EGFR Exon19Del biochemical enzymatic activity (HTRF); conditions: EGFR Del19, 1 mM ATP, 1 h, room temperature, read-out: IC50 @Del19
# T1 construct: purchased Carna Bio
# Summary of the method: (§2)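 Each enzyme was first added to plates holding compound. The reaction was then started with ATP (1 mM) and peptide substrate (1 μM). It was stopped after 1 h at room temperature with EDTA detection reagents and read at 615/665 nm to derive IC50s.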
# [2] = molecular target: T2, EGFR[T790M/C797S/d746-750] (Homo sapiens, UniProt P00533, C797S/DEL746-750/T790M); assay: Inhibition of EGFR[T790M/C797S/d746-750] biochemical enzymatic activity (HTRF); conditions: EGFR T790M-C797S-Del19, 1 mM ATP, 1 h, room temperature, read-out: IC50 (nM) @T790M - C797S - Del19
# T2 construct: purchased Carna Bio
# Summary of the method: as §2
# EGFR[T790M/C797S/L858R] = molecular target: T3, EGFR[T790M/C797S/L858R] (Homo sapiens, UniProt P00533, C797S/L858R/T790M); assay: Inhibition of EGFR[T790M/C797S/L858R] biochemical enzymatic activity (HTRF); conditions: EGFR T790M-C797S-L858R, 1 mM ATP, 1 h, room temperature, read-out: IC50 (nM) @T790M- C797S - L858R
# T3 construct: purchased Carna Bio
# T3 sequence (P00533 25-1210 T790M/C797S/L858R): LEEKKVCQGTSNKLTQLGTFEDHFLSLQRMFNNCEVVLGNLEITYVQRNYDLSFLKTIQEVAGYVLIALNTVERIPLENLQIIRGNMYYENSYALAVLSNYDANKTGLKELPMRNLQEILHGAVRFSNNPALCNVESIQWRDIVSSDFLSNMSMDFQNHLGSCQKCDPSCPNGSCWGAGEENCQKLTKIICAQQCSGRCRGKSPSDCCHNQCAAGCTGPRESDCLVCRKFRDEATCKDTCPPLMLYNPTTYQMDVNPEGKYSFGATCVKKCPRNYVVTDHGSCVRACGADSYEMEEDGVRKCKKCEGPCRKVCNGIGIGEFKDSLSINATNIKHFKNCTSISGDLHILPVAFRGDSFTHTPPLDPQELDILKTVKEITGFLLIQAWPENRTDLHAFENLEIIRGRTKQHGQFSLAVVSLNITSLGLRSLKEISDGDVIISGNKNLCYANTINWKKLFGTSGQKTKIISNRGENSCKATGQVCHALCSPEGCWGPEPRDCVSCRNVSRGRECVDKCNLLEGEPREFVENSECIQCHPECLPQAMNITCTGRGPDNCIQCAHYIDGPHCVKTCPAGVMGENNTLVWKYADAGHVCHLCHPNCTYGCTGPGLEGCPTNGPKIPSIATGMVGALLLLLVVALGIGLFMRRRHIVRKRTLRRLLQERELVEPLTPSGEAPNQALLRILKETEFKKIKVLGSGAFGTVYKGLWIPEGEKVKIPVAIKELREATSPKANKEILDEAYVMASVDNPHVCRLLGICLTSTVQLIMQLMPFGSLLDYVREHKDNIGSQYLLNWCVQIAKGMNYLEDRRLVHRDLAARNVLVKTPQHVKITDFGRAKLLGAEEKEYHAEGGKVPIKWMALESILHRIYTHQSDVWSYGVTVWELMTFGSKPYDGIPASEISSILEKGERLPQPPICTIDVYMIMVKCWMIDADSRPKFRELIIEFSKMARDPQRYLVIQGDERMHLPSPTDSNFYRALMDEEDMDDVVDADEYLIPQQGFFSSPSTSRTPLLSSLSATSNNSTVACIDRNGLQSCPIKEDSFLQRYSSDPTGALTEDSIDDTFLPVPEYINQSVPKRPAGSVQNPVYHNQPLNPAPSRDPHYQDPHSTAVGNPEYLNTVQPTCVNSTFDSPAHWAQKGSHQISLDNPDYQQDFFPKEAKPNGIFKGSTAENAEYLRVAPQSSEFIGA
# Summary of the method: as §2
# EGFR Exon19Del/T790M = molecular target: T4, EGFR Exon19Del/T790M (Homo sapiens, UniProt P00533, DEL746-750/T790M); assay: Inhibition of EGFR Exon19Del/T790M biochemical enzymatic activity (HTRF); conditions: EGFR Del19-T790M, 1 mM ATP, 1 h, room temperature, read-out: IC50 (nM) @Del19-T790M
# T4 construct: purchased Carna Bio
# T4 sequence (P00533 with tags, fused parts or gaps DEL746-750/T790M limits assumed): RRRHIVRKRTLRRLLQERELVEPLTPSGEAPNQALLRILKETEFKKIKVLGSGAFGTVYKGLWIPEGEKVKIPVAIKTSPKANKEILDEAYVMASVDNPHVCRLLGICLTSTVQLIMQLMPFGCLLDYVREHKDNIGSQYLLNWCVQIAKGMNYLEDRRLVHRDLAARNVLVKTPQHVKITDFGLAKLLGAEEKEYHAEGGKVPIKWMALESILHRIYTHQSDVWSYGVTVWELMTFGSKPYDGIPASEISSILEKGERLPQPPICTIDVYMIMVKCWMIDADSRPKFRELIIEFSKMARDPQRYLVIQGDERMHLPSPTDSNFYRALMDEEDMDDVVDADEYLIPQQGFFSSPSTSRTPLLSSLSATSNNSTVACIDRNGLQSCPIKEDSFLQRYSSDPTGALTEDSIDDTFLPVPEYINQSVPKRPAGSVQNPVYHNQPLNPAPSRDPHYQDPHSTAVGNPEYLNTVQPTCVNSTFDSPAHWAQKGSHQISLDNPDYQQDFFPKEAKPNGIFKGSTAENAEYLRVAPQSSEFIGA
# Summary of the method: as §2
# PC-9 = assay: Cell proliferation assay, PC-9 cells (CellTiter-Glo, 72 hours); type: cell-based; conditions: Homo sapiens, PC-9, 72 h, PC9 cells, CellTiter-Glo, read-out: PC9 GI50
# Summary of the method: as §1
# EGFR L858R/T790M = molecular target: T5, EGFR L858R/T790M (Homo sapiens, UniProt P00533, L858R/T790M); assay: Inhibition of EGFR L858R/T790M biochemical enzymatic activity (HTRF); conditions: EGFR L858R-T790M, 1 mM ATP, 1 h, room temperature, read-out: IC50 (nM) @L858R-T790M
# T5 construct: purchased Carna Bio
# T5 sequence (P00533 25-1210 T790M/L858R): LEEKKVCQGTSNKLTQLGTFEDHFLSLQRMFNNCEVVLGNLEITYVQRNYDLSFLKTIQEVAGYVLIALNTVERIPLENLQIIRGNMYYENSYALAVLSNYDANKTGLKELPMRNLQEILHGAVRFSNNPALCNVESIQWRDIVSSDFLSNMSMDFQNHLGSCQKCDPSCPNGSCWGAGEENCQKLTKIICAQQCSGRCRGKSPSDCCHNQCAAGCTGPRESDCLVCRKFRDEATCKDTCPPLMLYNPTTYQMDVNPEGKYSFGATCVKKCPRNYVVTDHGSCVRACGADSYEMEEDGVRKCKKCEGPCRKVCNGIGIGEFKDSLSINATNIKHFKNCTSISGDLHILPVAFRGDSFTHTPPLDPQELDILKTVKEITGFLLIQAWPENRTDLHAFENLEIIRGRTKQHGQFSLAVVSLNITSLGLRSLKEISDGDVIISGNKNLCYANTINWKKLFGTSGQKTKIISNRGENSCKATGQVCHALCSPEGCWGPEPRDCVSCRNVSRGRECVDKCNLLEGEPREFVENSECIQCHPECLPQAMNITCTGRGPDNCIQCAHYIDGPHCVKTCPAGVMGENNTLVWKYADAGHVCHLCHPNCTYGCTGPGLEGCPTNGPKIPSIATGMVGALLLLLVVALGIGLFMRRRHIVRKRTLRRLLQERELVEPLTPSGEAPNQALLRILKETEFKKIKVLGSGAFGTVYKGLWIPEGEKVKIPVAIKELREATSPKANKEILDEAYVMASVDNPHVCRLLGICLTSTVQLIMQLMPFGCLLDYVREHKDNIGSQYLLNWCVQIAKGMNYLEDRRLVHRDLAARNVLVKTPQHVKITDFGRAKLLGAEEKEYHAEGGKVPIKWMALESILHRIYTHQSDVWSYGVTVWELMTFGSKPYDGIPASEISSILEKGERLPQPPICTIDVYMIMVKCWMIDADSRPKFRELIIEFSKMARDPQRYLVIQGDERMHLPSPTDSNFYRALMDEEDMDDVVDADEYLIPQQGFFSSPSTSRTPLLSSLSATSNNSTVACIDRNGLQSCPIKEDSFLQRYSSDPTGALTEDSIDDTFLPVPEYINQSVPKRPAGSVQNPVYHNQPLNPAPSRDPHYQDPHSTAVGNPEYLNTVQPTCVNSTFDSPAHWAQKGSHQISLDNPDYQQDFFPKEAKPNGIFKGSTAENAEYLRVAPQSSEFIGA
# Summary of the method: as §2
# A-431 = assay: Cell proliferation GI50, A-431 cells (Table 6); type: cell-based; conditions: Homo sapiens, A-431, A-431 cells
# EGFR wild type = molecular target: T6, EGFR wild type (Homo sapiens, UniProt P00533); assay: Inhibition of EGFR wild type biochemical enzymatic activity (HTRF); conditions: EGFR WT, 1 mM ATP, 1 h, room temperature, read-out: IC50 (nM) @WT
# T6 construct: purchased Carna Bio
# Summary of the method: as §2
# EGFR (C797S L858R) = molecular target: T7, EGFR (C797S L858R) (Homo sapiens, UniProt P00533, C797S/L858R); assay: Inhibition of EGFR (C797S L858R) biochemical enzymatic activity (HTRF); conditions: EGFR L858-C797S, 1 mM ATP, 1 h, room temperature, read-out: IC50 (nM) @L858-C797S
# T7 construct: purchased signalchem
# T7 sequence (P00533 25-1210 C797S/L858R): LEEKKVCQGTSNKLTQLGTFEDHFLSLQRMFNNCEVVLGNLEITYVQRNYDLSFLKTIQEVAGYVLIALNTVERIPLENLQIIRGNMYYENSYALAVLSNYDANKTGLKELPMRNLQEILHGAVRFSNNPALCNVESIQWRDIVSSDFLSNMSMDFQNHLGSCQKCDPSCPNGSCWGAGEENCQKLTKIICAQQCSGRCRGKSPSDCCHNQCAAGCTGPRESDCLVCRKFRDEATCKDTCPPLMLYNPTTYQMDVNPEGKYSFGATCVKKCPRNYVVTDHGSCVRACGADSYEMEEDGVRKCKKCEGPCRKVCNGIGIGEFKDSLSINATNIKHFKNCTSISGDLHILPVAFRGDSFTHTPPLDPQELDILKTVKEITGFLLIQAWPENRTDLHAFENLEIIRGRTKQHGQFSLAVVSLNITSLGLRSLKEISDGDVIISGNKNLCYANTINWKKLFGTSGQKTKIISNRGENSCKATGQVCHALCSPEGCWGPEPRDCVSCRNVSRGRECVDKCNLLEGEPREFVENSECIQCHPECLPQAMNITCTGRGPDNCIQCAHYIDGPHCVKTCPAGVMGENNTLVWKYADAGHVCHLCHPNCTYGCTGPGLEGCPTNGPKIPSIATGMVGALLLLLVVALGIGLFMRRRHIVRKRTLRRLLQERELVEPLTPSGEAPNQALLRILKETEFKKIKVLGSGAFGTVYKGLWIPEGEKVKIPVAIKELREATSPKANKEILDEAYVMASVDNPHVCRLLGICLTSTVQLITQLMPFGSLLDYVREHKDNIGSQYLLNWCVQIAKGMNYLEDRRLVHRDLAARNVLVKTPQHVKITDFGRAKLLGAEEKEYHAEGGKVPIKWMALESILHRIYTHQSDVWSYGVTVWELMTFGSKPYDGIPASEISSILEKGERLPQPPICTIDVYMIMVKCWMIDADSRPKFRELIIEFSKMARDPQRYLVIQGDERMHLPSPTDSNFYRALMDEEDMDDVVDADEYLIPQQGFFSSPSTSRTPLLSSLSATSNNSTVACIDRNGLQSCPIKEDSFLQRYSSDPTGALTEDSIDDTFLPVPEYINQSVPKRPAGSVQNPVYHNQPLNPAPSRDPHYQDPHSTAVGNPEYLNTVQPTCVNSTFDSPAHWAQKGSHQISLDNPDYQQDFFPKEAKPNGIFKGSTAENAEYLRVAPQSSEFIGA
# Summary of the method: as §2
# EGFR L858R = molecular target: T8, EGFR L858R (Homo sapiens, UniProt P00533, L858R); assay: Inhibition of EGFR L858R biochemical enzymatic activity (HTRF); conditions: 1 mM ATP, 1 h, room temperature, read-out: IC50 (nM) @L858R
# T8 construct: purchased Carna Bio
# Summary of the method: as §2
# EGFR (d746-750 C797S) = molecular target: T9, EGFR (d746-750 C797S) (Homo sapiens, UniProt P00533, C797S/DEL746-750); assay: Inhibition of EGFR (d746-750 C797S) biochemical enzymatic activity (HTRF); conditions: EGFR Del19-C797S, 1 mM ATP, 1 h, room temperature, read-out: IC50 (nM) @Del19-C797S
# T9 construct: purchased signalchem
# T9 sequence (P00533 with tags, fused parts or gaps DEL746-750/C797S limits assumed): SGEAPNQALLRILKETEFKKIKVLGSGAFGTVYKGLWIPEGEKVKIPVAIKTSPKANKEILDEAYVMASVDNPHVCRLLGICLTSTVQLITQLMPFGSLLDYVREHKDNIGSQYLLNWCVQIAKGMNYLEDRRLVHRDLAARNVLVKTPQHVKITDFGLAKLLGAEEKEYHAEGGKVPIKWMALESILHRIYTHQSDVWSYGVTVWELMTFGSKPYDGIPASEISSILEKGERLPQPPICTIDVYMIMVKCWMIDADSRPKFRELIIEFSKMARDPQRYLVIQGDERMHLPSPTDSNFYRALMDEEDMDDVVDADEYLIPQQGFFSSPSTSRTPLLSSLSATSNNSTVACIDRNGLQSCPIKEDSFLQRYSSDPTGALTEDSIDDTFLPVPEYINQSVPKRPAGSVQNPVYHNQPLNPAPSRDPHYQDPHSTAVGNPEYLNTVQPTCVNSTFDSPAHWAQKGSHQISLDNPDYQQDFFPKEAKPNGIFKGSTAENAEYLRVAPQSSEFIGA
# Summary of the method: as §2
# [3] = BaF3 cells, EGFR DEL19-C797S, read-out: DEL19-C797S/BaF3 GI50
# [4] = BaF3 cells, EGFR DEL19-T790-C797S, read-out: DEL19-T790-C797S/BaF3 GI50
# [5] = BaF3 cells, EGFR L858R, read-out: L858R/BaF3 GI50
# [6] = BaF3 cells, EGFR L858R-C797S, read-out: L858R-C797S/BaF3 GI50
# [7] = BaF3 cells, EGFR L858R-T790-C797S, read-out: L858R-T790-C797S/BaF3 GI50
# [8] = BaF3 cells, EGFR L858R-T790M, read-out: L858R-T790M/BaF3 GI50
# [9] = EGFR DEL19-T790M, read-out: DEL19-T790M GI50
SMILES,"GI50 [1, 3] [nM]","GI50 [1, 4] [nM]","GI50 [1, 5] [nM]","GI50 [1, 6] [nM]","GI50 [1, 7] [nM]","GI50 [1, 8] [nM]","GI50 [1, 9] [nM]",IC50 (EGFR Exon19Del) [nM],IC50 [2] [nM],IC50 (EGFR[T790M/C797S/L858R]) [nM],IC50 (EGFR Exon19Del/T790M) [nM],GI50 (PC-9) [nM],IC50 (EGFR L858R/T790M) [nM],GI50 (A-431) [nM],IC50 (EGFR wild type) [nM],IC50 (EGFR (C797S L858R)) [nM],IC50 (EGFR L858R) [nM],IC50 (EGFR (d746-750 C797S)) [nM]
C[C@@H]1CCCOc2c(cnn2C)-c2cc(cn(C)c2=O)C(=O)Nc2nc3ccc(N4CCC(N5CCOCC5)C4)cc3n2C1 (stereo partly drawn) [Example A28],2.4,4.7,4.5,16,3.6,9.4,6.7,21,21,100,22,38,137,452,4140,93,174,14
C[C@@H]1CCCOc2c(cnn2C)-c2cc(cn(C)c2=O)C(=O)Nc2nc3ccc(N4CCC(N5CCN(C)CC5)CC4)cc3n2C1 [Example A29],0.41,1,2.1,2.8,0.78,2.5,1.9,3.8,8.2,8.9,7.6,7.1,15,247,109,7.9,14,2.1
C[C@@H]1CCCOc2c(cnn2C)-c2cc(cn(C)c2=O)C(=O)Nc2nc3ccc(N4CCC5(CCN(C)C5)CC4)cc3n2C1 [Example A35],0.38,0.5,0.53,1.7,1,3.4,1.6,1.1,2,2,1.9,3.7,2.2,215,2.7,1.8,1.5,0.84
C[C@@H]1CCCOc2c(cnn2C)-c2cc(cn(C)c2=O)C(=O)Nc2nc3ccc(N(C)CCN(C)C)cc3n2C1 [Example A36],2.1,6,5.1,5.9,4.7,23,7.8,3,2.4,4.9,2.5,14,8,591,193,14,30,2.1
C[C@@H]1CCCOc2c(cnn2C)-c2cc(cn(C)c2=O)C(=O)Nc2nc3ccc(N4CCN(C5COC5)CC4)cc3n2C1 [Example A39],1.9,4.7,5.2,6.9,5.4,16,8.4,5.9,5.1,8.2,5,7.6,14,290,1520,30,74,2.8
C[C@@H]1CCCOc2c(cnn2C)-c2cc(cn(C)c2=O)C(=O)Nc2nc3ccc(N4CC5(CCN(C)CC5)C4)cc3n2C1 [Example A41],0.33,1.1,0.47,1.4,0.57,2.9,1.4,2.3,3.1,3.2,3.5,2.9,5.1,314,74,5.3,10,1.7

# The remaining lines, values ahead:
"GI50 [1, 3] [nM]","GI50 [1, 4] [nM]","GI50 [1, 5] [nM]","GI50 [1, 6] [nM]","GI50 [1, 7] [nM]","GI50 [1, 8] [nM]","GI50 [1, 9] [nM]",IC50 (EGFR Exon19Del) [nM],IC50 [2] [nM],IC50 (EGFR[T790M/C797S/L858R]) [nM],IC50 (EGFR Exon19Del/T790M) [nM],GI50 (PC-9) [nM],IC50 (EGFR L858R/T790M) [nM],GI50 (A-431) [nM],IC50 (EGFR wild type) [nM],IC50 (EGFR (C797S L858R)) [nM],IC50 (EGFR L858R) [nM],IC50 (EGFR (d746-750 C797S)) [nM],SMILES
1.2,1.9,3,7.1,2.2,6.8,3.5,6.1,13,20,15,21,26,453,290,21,25,5.5,"C[C@@H]1CCCOc2c(cnn2C)-c2cc(cn(C)c2=O)C(=O)Nc2nc3ccc(N4CCC(N(C)C)C4)cc3n2C1 (stereo partly drawn) [Example A27, (11R)-16-[3-(Dimethylamino)pyrrolidin-1-yl]-5,11,26-trimethyl-7-oxa-4,5,13,20,22,26-hexaazapentacyclo[22.3.1.0^{2,6}.0^{13,21}.0^{14,19}]octacosa-1(28),2(6),3,14,16,18,20,24-octaene-23,27-dione]"
0.4,0.58,1.1,2.2,2.3,3.4,3.2,3.1,3.1,5.2,3.4,4.8,5.8,366,22,6,7.3,2.1,C[C@@H]1CCCOc2c(cnn2C)-c2cc(cn(C)c2=O)C(=O)Nc2nc3ccc(N4CCC(N5CCN(C)CC5)C4)cc3n2C1 (stereo partly drawn) [Example A33]
0.7,3.3,3.2,3.8,2.5,10,5.5,3.4,1.2,2.3,1.4,4.3,6.5,166,281,13,40,1.7,C[C@@H]1CCCOc2c(cnn2C)-c2cc(cn(C)c2=O)C(=O)Nc2nc3ccc(N4CC(N(C)C)C4)cc3n2C1 [Example A37]
1.4,4.8,4.1,4.2,3.2,13,7.3,1.3,1.7,1.7,1.6,6.2,2.7,315,159,2.9,9.7,0.81,C[C@@H]1CCCOc2c(cnn2C)-c2cc(cn(C)c2=O)C(=O)Nc2nc3ccc(N4CCC(N(C)C)C(F)C4)cc3n2C1 (stereo partly drawn) [Example A38]
1.7,4.2,4,5.4,4.7,17,7.7,4.4,4.3,5.2,4.5,17,6.1,642,71,6.7,11,2.3,C[C@@H]1CCCOc2c(cnn2C)-c2cc(cn(C)c2=O)C(=O)Nc2nc3ccc(N4CC5(CN(C)C5)C4)cc3n2C1 [Example A40]
